{
  "source": "patent US6613541B1",
  "about": "“Method for monitoring proteasome inhibitor drug action” (Millennium Pharmaceuticals, Inc., priority 1998, dated 2003)",
  "key": {"[1]": {"design": "species or system Sprague-Dawley rats", "conditions": "rat, in vivo, iv", "procedure": "A single dose intravenous pharmacokinetics study with N-(pyrazine) carbonyl-L-phenylalanine-L-leucine boronic acid (1) was conducted in Sprague-Dawley rats (140 to 280 g). Animals were assigned to 3 groups (6/sex in Groups 1 and 2; 9/sex in Group 3). Animals in groups 1, 2, and 3 received 0.03, 0.1 or 0.3 mg/kg of 1, respectively, in the same dose volume.\nBlood samples (approximately 1.0 mL) were collected from the jugular vein of animals pre-dose and at approximately 10 and 30 min and 1, 3 and 24 h post-dose on Day 1."}, "20S proteasome [2]": {"test_system": "20S proteasome", "assay": "Ratio of chymotryptic to tryptic activity, titration of inhibitor in human samples", "assay_type": "biochemical", "procedure": "The percent inhibition (%I) is then calculated according to the following equation: [formula]\nμt=activation factor determined upon titration of the proteasome inhibitor. For the proteasome inhibitor 1, βt=1.28 in human samples.\nComplete activation of the 20S roteasome is achieved within 10 minutes.\nβt=activation factor determined upon titration of the proteasome inhibitor. For the proteasome inhibitor 1, βt=1.28 in human samples."}, "[3]": {"test_system": "20S proteasome in rat white blood cell lysates", "assay": "Ratio of chymotryptic to tryptic activity in rat white blood cell lysates", "assay_type": "biochemical", "conditions": "fit of vc/vt", "text": "Data was fitted as in Example 10, to give kc/kt=17.6± and βt=1.1±0.2 (FIG. 13)."}, "20S proteasome [4]": {"test_system": "20S proteasome", "assay": "Ex vivo 20S proteasome activity in peripheral white blood cells of mice after single intravenous administration", "design": "species or system female CD2-F1 mice and female BALB/c mice", "procedure": "(§1) The amount of 20S proteasome activity in the test sample is calculated according to the following formula: [formula]\n(§2) Dose formulations of 1 were prepared daily during the course of the study. Dilutions were prepared from a stock solution. The stock solution of 1 was made up in 98% saline (0.9%), 2% ethanol with 0.1% ascorbic acid. Dilutions of the stock were made in the same vehicle.\n(§3) Drugs were administered in vehicle intravenously (IV) using a dose volume of 100 μL per mouse or 1.0 mL/kg in rats. Control groups were administered with the vehicle (98% saline [0.9%], 2% ethanol, 0.1% ascorbic acid). Animals were dosed with 1 as a single IV bolus given either once or on multiple occasions.\n(§4) Following IV dosing with 1, blood was withdrawn at various time points and peripheral white blood cells were isolated.\nThe vehicle was […] [0.9%], 2% ethanol, 0.1% ascorbic acid. Blood samples were collected at 1.0 and 24 h following administration. Due to the blood volume required in the 20S proteasome activity assay, groups of five mice were sacrificed at the same time and their blood pooled to generate single data points."}, "20S proteasome [5]": {"test_system": "20S proteasome", "assay": "Ex vivo 20S proteasome activity in peripheral white blood cells of rats after single intravenous administration", "design": "species or system female Wistar rats", "procedure": "as §1, §2, §3, §4\nBlood samples were collected at 1.0, 24 and 48 h following administration of 1."}, "20S proteasome [6]": {"test_system": "20S proteasome", "assay": "Ex vivo 20S proteasome activity in peripheral white blood cells of rats after repeat intravenous administration", "procedure": "as §1, §3\nIn an additional repeat dose study, male Sprague-Dawley rats (250 to 450 g; n=6 per group) were treated with twice weekly intravenous doses of 1 (0.01 to 0.35 mg/kg/day in a dose volume of 1.0 mL/kg) for two weeks. […] Blood samples were collected 1.0 h after the last dose for evaluation of 20S proteasome activity."}, "20S proteasome [7]": {"biological_target": "T1, 20S proteasome (Rattus norvegicus, UniProt P28075)", "T1 sequence (P28075 60-263)": "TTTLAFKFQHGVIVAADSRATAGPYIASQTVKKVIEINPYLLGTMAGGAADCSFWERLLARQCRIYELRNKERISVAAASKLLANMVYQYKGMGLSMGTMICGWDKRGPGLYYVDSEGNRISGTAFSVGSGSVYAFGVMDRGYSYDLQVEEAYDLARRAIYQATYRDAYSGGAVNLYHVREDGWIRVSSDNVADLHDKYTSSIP", "procedure": "In two studies, female Wistar rats (150 to 200 g) were administered a single intravenous dose of 1 (0.03, 0.1 and 0.3 mg/kg in a dose volume of 1.0 mL/kg). […] Tissue samples were collected from liver and brain at 1.0, 24 and 48 h following administration for evaluation of 20S proteasome activity."}, "20S proteasome [8]": {"test_system": "20S proteasome", "assay": "Ex vivo 20S proteasome activity in primate white blood cells, twice weekly intravenous dosing for 4 weeks", "design": "species or system Cynomolgus monkeys", "procedure": "Male and female Cynomolgus monkeys (2.2 to 3.5 kg) were assigned to four groups (5/sex/group). Each group received 0 (vehicle control), 0.045, 0.067 or 0.100 mg/kg/dose of 1 as a single intravenous injection in a dose volume of 0.3 mL/kg twice weekly for 4 weeks (days 1, 5, 8, 12, 15, 19, 22 and 26). […] Three males from the control, low- and mid-dose groups, two high-dose males, and three females/group were sacrificed at the end of treatment on Day 27. Two animals/sex/group were designated as recovery animals and received treatment for 4 weeks followed by 2 weeks of recovery; they were sacrificed on Day 41.\nBlood was collected for 20S proteasome activity determination prior to treatment, at 1.0 h after dosing on Days 1, 8, 15 and 22, and at 1.0 h prior to dosing on Days 5, 12, 19 and 26; and on Days 31, 34, 38, and 41 (recovery sacrifice animals)."}, "[9]": {"test_system": "purified 20S proteasome from rabbit reticulocytes (tryptic activity)", "assay": "Tryptic activity of purified 20S proteasome (Rs substrate, fluorometry)", "description": "The assay is based upon the SDS-inducible chymotrypsin-like and trypsin-like activities of free 20S proteasome particles. It uses fluorometry to measure the rate at which the 20S proteasome hydrolyzes an amide bond in a small peptide substrate.\nThe Rs substrate is dissolved to 10 mM in DMSO. The Rs substrate buffer, containing 20 mM HEPES, 0.5 mM EDTA, 0.6% DMSO, and 60 μM Rs substrate, is prepared.\n20 μL of a test sample is added to a cuvette containing 2 mL of Rs substrate buffer at 37° C., and the reaction is allowed to run for 10 minutes. Complete activation of the 20S proteasome is achieved within 10 minutes. Consistent results are obtained for readings taken after 4 minutes and up to 10 minutes. The maximum linear slope for at least 1 minute of data is measured. If the rate is less than 1 pmol AMC/sec, the measurement is repeated using 20 μL of the test sample in 800 μL Rs buffer.\n(§5) Chymotryptic and tryptic assays were performed as described in Examples 3 and 5 at increasing concentrations of the proteasome inhibitor 1.\nChymotryptic and tryptic assays were performed as described in Examples 3 and 5 at increasing concentrations of the proteasome inhibitor 1. The data was fitted to vc/vt=kc/kt*(1−f)/(1−f+βt*f), where kc/kt=2.88±0.03, βt=1.38±0.05, and %I=f*100 (FIG. 12)."}, "[10]": {"test_system": "purified 20S proteasome from rabbit reticulocytes (chymotryptic activity)", "assay": "Chymotryptic activity of purified 20S proteasome (Ys substrate, fluorometry)", "description": "The assay is based upon the SDS-inducible chymotrypsin-like activity of free 20S particles. It uses fluorometry to measure the rate at which the 20S proteasome hydrolyzes an amide bond in a small peptide substrate. Measurement of this rate in the absence and in the presence of an inhibitor allows a determination of how enzyme is bound by inhibitor.\nThe Ys substrate is dissolved to 6 mM in DMSO. A 2% (2 g/100 mL) solution of SDS in MilliQ water is prepared in a glass bottle. The Ys substrate buffer, containing 20 mM HEPES, 0.5 mM EDTA, 0.035% SDS, 1% DMSO, and 60 μM Ys substrate, is prepared. The final pH of the Ys buffer is 8.0.\n10 μL of a test sample is added to a cuvette containing 2 mL of Ys substrate buffer at 37° C., and the reaction is allowed to run for 10 minutes. Complete activation of the 20S proteasome is achieved within 10 minutes. Consistent results are obtained for readings taken after 4 minutes and up to 10 minutes. The maximum linear slope for at least 1 minute of data is measured. If the rate is less than 1 pmol AMC/sec, the measurement is repeated using 20 μL of the test sample.\nas §5"}, "20S proteasome [11]": {"biological_target": "T1, 20S proteasome", "assay": "Ex vivo 20S proteasome activity in rat blood and tissues 1.0 h after intravenous administration (third study)", "design": "from tissue; host or cells: rat liver and brain (Wistar); blood, brain, colon, liver, muscle, prostate, testes (Sprague-Dawley); species or system male Sprague-Dawley rats", "procedure": "Blood and tissue samples were collected 1.0 h following administration for evaluation of 20S proteasome activity. The tissues collected were brain, colon, liver, muscle (gastrocnemius), prostate and testes."}, "[12]": {"conditions": "alternate daily IV for 14 days, 24 h after last dose"}, "[13]": {"conditions": "daily IV for 7 days, 24 h after last dose"}, "[14]": {"conditions": "once weekly IV for 8 weeks, 24 h after last dose"}, "[15]": {"conditions": "inferred from absence of 20S proteasome inhibition"}, "[16]": {"conditions": "1.0 h after single IV 0.1 and 0.3 mg/kg"}},
  "note": "Entries after “also recorded” stand apart in the source; their conditions may differ. Read-outs that look alike come from different tables or passages of the source.",
  "data": [
    {"smiles": "CC(C)C[C@H](NC(=O)[C@H](Cc1ccccc1)NC(=O)c1cnccn1)B(O)O", "note": "[compound 1, N-(pyrazine)carbonyl-L-phenylalanine-L-leucine boronic acid]", "values": [
      {"measurement": "clearance from the blood", "setting": "[1]", "value": "rapidly cleared from the blood"},
      {"measurement": "time to peak concentration (Tmax)", "setting": "[1]; 0.3 mg/kg", "value": "≤ 10", "unit": "min"},
      {"measurement": "βt (activation factor determined upon titration of the proteasome inhibitor)", "setting": "20S proteasome [2]", "value": 1.28},
      {"measurement": "βt (activation factor of tryptic activity)", "setting": "[3]", "value": "1.1±0.2"},
      {"measurement": "20S proteasome activity in white blood cells", "setting": "20S proteasome [4]; 1.0 h after single IV 0.1 to 3.0 mg/kg, all dose groups", "value": "significant (p<0.05) dose-related decrease"},
      {"measurement": "20S proteasome activity in white blood cells", "setting": "20S proteasome [4]; 24 h after single IV 0.1 to 3.0 mg/kg", "value": "starts to recover"},
      {"measurement": "inhibition of 20S proteasome activity in peripheral white blood cells (overall)", "setting": "20S proteasome [4]; single intravenous injection, mice", "value": "dose-dependent and reversible inhibition"},
      {"measurement": "20S proteasome activity in white blood cells", "setting": "20S proteasome [5]; 1.0 h after single IV 0.03 to 0.3 mg/kg", "value": "significant (p<0.05) dose-related decrease"},
      {"measurement": "20S proteasome activity in white blood cells", "setting": "20S proteasome [5]; 24 h after single IV 0.03 to 0.3 mg/kg", "value": "smaller, but remained significant (p<0.05) in the higher dose groups"},
      {"measurement": "20S proteasome activity in white blood cells", "setting": "20S proteasome [5]; 48 h after single IV 0.03 to 0.3 mg/kg", "value": "no longer significantly decreased"},
      {"measurement": "inhibition of 20S proteasome activity in peripheral white blood cells (overall)", "setting": "20S proteasome [5]; single intravenous injection, rats", "value": "dose-dependent and reversible inhibition"},
      {"measurement": "extent of 20S proteasome inhibition compared with single dose", "setting": "20S proteasome [6]; 24 h after 7 daily IV doses", "value": "greater than that observed 24 h after administration of a single intravenous dose"},
      {"measurement": "20S proteasome activity in white blood cells", "setting": "20S proteasome [6]; [12]", "value": "significant dose-related decrease"},
      {"measurement": "dose groups with significant (p<0.05) decrease in 20S proteasome activity", "setting": "20S proteasome [6]; [12]", "value": "≥ 0.2", "unit": "mg/kg"},
      {"measurement": "20S proteasome activity in white blood cells", "setting": "20S proteasome [6]; [13]", "value": "dose-related decrease"},
      {"measurement": "doses with significant inhibition of 20S proteasome activity", "setting": "20S proteasome [6]; [13]", "value": "≥ 0.05", "unit": "mg/kg"},
      {"measurement": "20S proteasome activity in white blood cells", "setting": "20S proteasome [6]; [14]", "value": "significant (p<0.05) dose-related decrease"},
      {"measurement": "dose groups with significant (p<0.05) decrease in 20S proteasome activity", "setting": "20S proteasome [6]; [14]", "value": "≥ 0.1", "unit": "mg/kg"},
      {"measurement": "20S proteasome activity in white blood cells", "setting": "20S proteasome [6]; twice weekly IV for 2 weeks (4 doses, 0.01 to 0.35 mg/kg/day), male Sprague-Dawley rats, 1.0 h after last dose", "value": "dose-related decrease"},
      {"measurement": "dose groups with significant (p<0.05) decrease in 20S proteasome activity", "setting": "20S proteasome [6]; twice weekly IV for 2 weeks, male Sprague-Dawley rats, 1.0 h after last dose", "value": "≥ 0.03", "unit": "mg/kg"},
      {"measurement": "20S proteasome activity in rat liver", "setting": "20S proteasome [7]; 1.0 h after single IV 0.03, 0.1 and 0.3 mg/kg", "value": "significant (p<0.05) dose-related decrease"},
      {"measurement": "20S proteasome activity in rat liver", "setting": "20S proteasome [7]; 24 h after single IV, high dose group 0.3 mg/kg", "value": "smaller, but remained significant (p<0.05) in the high dose group"},
      {"measurement": "20S proteasome activity in rat liver", "setting": "20S proteasome [7]; 48 h after single IV", "value": "returned to baseline"},
      {"measurement": "penetration of 1 into brain tissue", "setting": "20S proteasome [7]; [15]", "value": "lack of penetration"},
      {"measurement": "20S proteasome inhibition in brain tissue", "setting": "20S proteasome [7]; single IV 0.03, 0.1 and 0.3 mg/kg, 1.0, 24 and 48 h", "value": "No 20S proteasome inhibition was observed"},
      {"measurement": "clinical condition of high-dose male", "setting": "20S proteasome [8]; 0.100 mg/kg/dose IV twice weekly, Day 26 after receiving 8 doses", "value": "sacrificed in moribund condition"},
      {"measurement": "white blood cell 20S proteasome activity", "setting": "20S proteasome [8]; 1.0 h after dosing, 0.045, 0.067 or 0.100 mg/kg/dose IV twice weekly", "value": "significant and dose-related decrease"},
      {"measurement": "white blood cell 20S proteasome activity", "setting": "20S proteasome [8]; 72 hours after dosing, prior to the subsequent dose", "value": "recovered"},
      {"measurement": "20S proteasome activity in white blood cells of the moribund animal", "setting": "20S proteasome [8]; high-dose male at sacrifice on Day 26 after 8 doses", "value": "low residual 20S proteasome activity"},
      {"measurement": "βt (activation factor of tryptic activity)", "setting": "[9]; fit of vc/vt, purified 20S proteasome from rabbit reticulocytes", "value": "1.38±0.05"},
      {"measurement": "effect on tryptic activity", "setting": "[9]; increasing concentrations of 1, same concentration range", "value": "activation; also recorded: activated"},
      {"measurement": "βc (factor for chymotryptic site activity of E I complex; 0 = total inhibition)", "setting": "[10]", "value": 0},
      {"measurement": "effect on chymotryptic activity", "setting": "[10]; increasing concentrations of 1", "value": "fully inhibits; also recorded: fully inhibitable"},
      {"measurement": "20S proteasome activity in peripheral white blood cells, colon, liver, muscle (gastrocnemius), and prostate", "setting": "20S proteasome [11]; [16]", "value": "Significant (p<0.05) dose-related decreases"},
      {"measurement": "20S proteasome inhibition in brain and testes", "setting": "20S proteasome [11]; [16]", "value": "No 20S proteasome inhibition was observed"},
      {"measurement": "penetration of 1 into brain and testes", "setting": "20S proteasome [11]; [15]", "value": "lack of 1 penetration"}
    ]}
  ]
}
